Paper PMC11033320, “Activation of p53 signaling and regression of breast and prostate carcinoma cells by spirooxindole-benzimidazole small molecules” (Frontiers in Pharmacology, 2024)

Tests used:
RXF 393 = assay: NCI anticancer screening, Renal Cancer RXF 393; format: cell-based; conditions: Homo sapiens; RXF 393, 10 μM; read-out: % Growth Inhibition (GI %)
Excerpt: (§1) The compound has been processed according to standard method NCI-60 Human Tumor Cell Lines Screen for organic compound at development therapeutic program (DTP). Requests for access to this national resource can be submitted online at: […]

SR = assay: NCI anticancer screening, Leukemia SR; format: cell-based; conditions: Homo sapiens, read-out: % Growth Inhibition (GI %)
Excerpt: as §1

UACC-257 = assay: NCI anticancer screening, Melanoma UACC-257; format: cell-based; conditions: Homo sapiens; UACC-257, 10 μM; read-out: % Growth Inhibition (GI %)
Excerpt: as §1

KM12 = assay: NCI anticancer screening, Colon Cancer KM12; format: cell-based; conditions: Homo sapiens; KM12, 10 μM; read-out: % Growth Inhibition (GI %)
Excerpt: as §1

MOLT-4 = assay: NCI anticancer screening, Leukemia MOLT-4; format: cell-based; conditions: Homo sapiens; MOLT-4, 10 μM; read-out: % Growth Inhibition (GI %)
Excerpt: as §1

UO-31 = assay: NCI anticancer screening, Renal Cancer UO-31; format: cell-based; conditions: Homo sapiens; UO-31, 10 μM; read-out: % Growth Inhibition (GI %)
Excerpt: as §1

MCF7 = assay: NCI anticancer screening, Breast Cancer MCF7; format: cell-based; conditions: Homo sapiens; MCF7, 10 μM; read-out: % Growth Inhibition (GI %)
Excerpt: as §1

HCC-2998 = assay: NCI anticancer screening, Colon Cancer HCC-2998; format: cell-based; conditions: Homo sapiens; HCC-2998, 10 μM; read-out: % Growth Inhibition (GI %)
Excerpt: as §1

SK-MEL-5 = assay: NCI anticancer screening, Melanoma SK-MEL-5; format: cell-based; conditions: Homo sapiens; SK-MEL-5, 10 μM; read-out: % Growth Inhibition (GI %)
Excerpt: as §1

SN12C = assay: NCI anticancer screening, Renal Cancer SN12C; format: cell-based; conditions: Homo sapiens, read-out: % Growth Inhibition (GI %)
Excerpt: as §1

[1] = MTT cytotoxicity to normal human lung fibroblast Wi-38 cell line; format: cell-based; conditions: Wi-38 normal lung fibroblast cells, mean ± SEM, read-out: percentage of Wi-38 viability
Procedure: Normal human lung fibroblast Wi-38 cell line was used to detect cytotoxicity of the studied compounds (Table S8). Wi-38 cell line was cultured in DMEM medium-contained 10% fetal bovine serum (FBS), seeded as 5x10^3 cells per well in 96-well cell culture plate and incubated at 37 °C in 5% CO2 incubator. After 24 h for cell attachment, serial concentrations of the synthetic compounds were incubated with Wi-38 cells for 72 h. Cell viability was assayed by MTT method (Mosmann, 1983). Twenty microliters of 5 mg/ml MTT (Sigma, USA) was added to each well and the plate was incubated at 37 °C for 3 h. Then MTT solution was removed, 100 µl DMSO was added and the absorbance of each well was measured with a microplate reader (BMG LabTech, Germany) at 570 nm.

LOX IMVI = assay: NCI anticancer screening, Melanoma LOX IMVI; format: cell-based; conditions: Homo sapiens, read-out: % Growth Inhibition (GI %)
Excerpt: as §1

HL-60(TB) = assay: NCI anticancer screening, Leukemia HL-60(TB); format: cell-based; conditions: Homo sapiens, read-out: % Growth Inhibition (GI %)
Excerpt: as §1

K-562 = assay: NCI anticancer screening, Leukemia K-562; format: cell-based; conditions: Homo sapiens, K562; K-562, 10 μM; read-out: % Growth Inhibition (GI %)
Excerpt: as §1

NCI-H460 = assay: NCI anticancer screening, Non-Small Cell Lung Cancer NCI-H460; format: cell-based; conditions: Homo sapiens; NCI-H460, 10 μM; read-out: % Growth Inhibition (GI %)
Excerpt: as §1

SW-620 = assay: NCI anticancer screening, Colon Cancer SW-620; format: cell-based; conditions: Homo sapiens; SW-620, 10 μM; read-out: % Growth Inhibition (GI %)
Excerpt: as §1

CCRF-CEM = assay: NCI anticancer screening, Leukemia CCRF-CEM; format: cell-based; conditions: Homo sapiens, read-out: % Growth Inhibition (GI %)
Excerpt: as §1

SNB-75 = assay: NCI anticancer screening, CNS Cancer SNB-75; format: cell-based; conditions: Homo sapiens; SNB-75, 10 μM; read-out: % Growth Inhibition (GI %)
Excerpt: as §1

EKVX = assay: NCI anticancer screening, Non-Small Cell Lung Cancer EKVX; format: cell-based; conditions: Homo sapiens, read-out: % Growth Inhibition (GI %)
Excerpt: as §1

HCT-15 = assay: NCI anticancer screening, Colon Cancer HCT-15; format: cell-based; conditions: Homo sapiens; HCT-15, 10 μM; read-out: % Growth Inhibition (GI %)
Excerpt: as §1

MALME-3M = assay: NCI anticancer screening, Melanoma MALME-3M; format: cell-based; conditions: Homo sapiens, read-out: % Growth Inhibition (GI %)
Excerpt: as §1

OVCAR-3 = assay: NCI anticancer screening, Ovarian Cancer OVCAR-3; format: cell-based; conditions: Homo sapiens; OVCAR-3, 10 μM; read-out: % Growth Inhibition (GI %)
Excerpt: as §1

SF-539 = assay: NCI anticancer screening, CNS Cancer SF-539; format: cell-based; conditions: Homo sapiens; SF-539, 10 μM; read-out: % Growth Inhibition (GI %)
Excerpt: as §1

MDA-MB-468 = assay: NCI anticancer screening, Breast Cancer MDA-MB-468; format: cell-based; conditions: Homo sapiens, read-out: % Growth Inhibition (GI %)
Excerpt: as §1

M14 = assay: NCI anticancer screening, Melanoma M14; format: cell-based; conditions: Homo sapiens; M14, 10 μM; read-out: % Growth Inhibition (GI %)
Excerpt: as §1

OVCAR-4 = assay: NCI anticancer screening, Ovarian Cancer OVCAR-4; format: cell-based; conditions: Homo sapiens; OVCAR-4, 10 μM; read-out: % Growth Inhibition (GI %)
Excerpt: as §1

NCI-H522 = assay: NCI anticancer screening, Non-Small Cell Lung Cancer NCI-H522; format: cell-based; conditions: Homo sapiens; NCI-H522, 10 μM; read-out: % Growth Inhibition (GI %)
Excerpt: as §1

A549/ATCC = assay: NCI anticancer screening, Non-Small Cell Lung Cancer A549/ATCC; format: cell-based; conditions: Homo sapiens, read-out: % Growth Inhibition (GI %)
Excerpt: as §1

PC-3 cells = assay: MTT assay anticancer activity, PC-3; format: cell-based; conditions: Homo sapiens, PC-3, 5 µM, mean ± SEM, read-out: growth inhibition percentage of PC-3
Excerpt: MTT method was done as described above.

CAKI-1 = assay: NCI anticancer screening, Renal Cancer CAKI-1; format: cell-based; conditions: Homo sapiens; CAKI-1, 10 μM; read-out: % Growth Inhibition (GI %)
Excerpt: as §1

HOP-62 = assay: NCI anticancer screening, Non-Small Cell Lung Cancer HOP-62; format: cell-based; conditions: Homo sapiens; HOP-62, 10 μM; read-out: % Growth Inhibition (GI %)
Excerpt: as §1

MDA-MB-435 = assay: NCI anticancer screening, Melanoma MDA-MB-435; format: cell-based; conditions: Homo sapiens; MDA-MB-435, 10 μM; read-out: % Growth Inhibition (GI %)
Excerpt: as §1

RPMI-8226 = assay: NCI anticancer screening, Leukemia RPMI-8226; format: cell-based; conditions: Homo sapiens; RPMI-8226, 10 μM; read-out: % Growth Inhibition (GI %)
Excerpt: as §1

Row | Compound | inhibition at 10 µM (RXF 393) [%] | inhibition at 10 µM (SR) [%] | inhibition at 10 µM (UACC-257) [%] | inhibition at 10 µM (KM12) [%] | inhibition at 10 µM (MOLT-4) [%] | inhibition at 10 µM (UO-31) [%] | inhibition at 10 µM (MCF7) [%] | inhibition at 10 µM (HCC-2998) [%] | inhibition at 10 µM (SK-MEL-5) [%] | inhibition at 10 µM (SN12C) [%] | viability at 72 h, 5 µM [1] [%] | inhibition at 10 µM (LOX IMVI) [%] | inhibition at 10 µM (HL-60(TB)) [%] | inhibition at 10 µM (K-562) [%] | inhibition at 10 µM (NCI-H460) [%] | inhibition at 10 µM (SW-620) [%] | inhibition at 10 µM (CCRF-CEM) [%] | melting point [°C] | inhibition at 10 µM (SNB-75) [%] | inhibition at 10 µM (EKVX) [%] | further results
1 | O=C(c1nc2ccccc2[nH]1)[C@H]1[C@H](c2cccc(O)c2)C2CSCN2[C@]12C(=O)Nc1ccccc12 (stereo partly drawn) [Compound 6h, (3S,6′R)-6'-(1H-Benzo [d]imidazole-2-carbonyl)-7'-(3-hydroxyphenyl)-3′,6′,7′,7a′-tetrahydro-1′H-spiro [indoline-3.5′-pyrrolo [1,2-c]thiazol]-2-one] | 104 | 79.1 | 91.9 | 89.4 | 91.2 | 60.6 | 92.8 | 101 | 93.7 | 94.8 | 51 ± 1.83 | 84.3 | 104 | 92.5 | 94.8 | 91.8 | 108 | 205 to 207 | 74.5 | 96.6 | inhibition at 10 µM (HCT-15): 103%; inhibition at 10 µM (MALME-3M): 96.8%; inhibition at 10 µM (OVCAR-3): 97.2%; inhibition at 10 µM (SF-539): 90%; inhibition at 10 µM (MDA-MB-468): 104%; inhibition at 10 µM (M14): 97.3%; inhibition at 10 µM (OVCAR-4): 82.1%; inhibition at 10 µM (NCI-H522): 83.9%; inhibition at 10 µM (A549/ATCC): 95.4%; inhibition at 5 µM (PC-3 cells): 40.4 ± 1.25%; inhibition at 10 µM (CAKI-1): 84.1%; inhibition at 10 µM (HOP-62): 96.4%; inhibition at 10 µM (MDA-MB-435): 93.5%; inhibition at 10 µM (RPMI-8226): 82.4%
2 | COc1cc([C@@H]2C3CSCN3[C@]3(C(=O)Nc4ccccc43)[C@H]2C(=O)c2nc3ccccc3[nH]2)cc(OC)c1OC (stereo partly drawn) [Compound 6i, (3S,6′R)-6'-(1H-Benzo [d]imidazole-2-carbonyl)-7'-(3,4,5-trimethoxyphenyl)-3′,6′,7′,7a′-tetrahydro-1′H-spiro [indoline-3.5′-pyrrolo [1,2-c]thiazol]-2-one] | 109 | 91.8 | 87.8 | 101 | 97.4 | 86.6 | 99.9 | 108 | 103 | 99 | 43.3 ± 0.917 | 101 | 103 | 94.2 | 105 | 99.5 | 104 | 245 to 247 | 94.1 | 100 | inhibition at 10 µM (HCT-15): 105%; inhibition at 10 µM (MALME-3M): 99.8%; inhibition at 10 µM (OVCAR-3): 109%; inhibition at 10 µM (SF-539): 99.6%; inhibition at 10 µM (MDA-MB-468): 99.6%; inhibition at 10 µM (M14): 107%; inhibition at 10 µM (OVCAR-4): 100%; inhibition at 10 µM (NCI-H522): 88.3%; inhibition at 10 µM (A549/ATCC): 89.4%; inhibition at 5 µM (PC-3 cells): 49.8 ± 3.12%; inhibition at 10 µM (CAKI-1): 92.6%; inhibition at 10 µM (HOP-62): 104%; inhibition at 10 µM (MDA-MB-435): 101%; inhibition at 10 µM (RPMI-8226): 108%
3 | O=C(c1nc2ccccc2[nH]1)[C@H]1[C@H](c2ccccc2O)C2CSCN2[C@]12C(=O)Nc1ccccc12 (stereo partly drawn) [Compound 6j, (3S,6′R)-6'-(1H-Benzo [d]imidazole-2-carbonyl)-7'-(2-hydroxyphenyl)-3′,6′,7′,7a′-tetrahydro-1′H-spiro [indoline-3.5′-pyrrolo [1,2-c]thiazol]-2-one] | 88.2 | 94 | 95.6 | 82.5 | 89.5 | 73.9 | 92.4 | 103 | 94 | 94.3 | 40 ± 2.38 | 89.2 | 103 | 96.4 | 97.4 | 95.4 | 101 | 186 to 188 | 73.1 | 91.6 | inhibition at 10 µM (HCT-15): 101%; inhibition at 10 µM (MALME-3M): 105%; inhibition at 10 µM (OVCAR-3): 96.3%; inhibition at 10 µM (SF-539): 98.5%; inhibition at 10 µM (MDA-MB-468): 102%; inhibition at 10 µM (M14): 95.1%; inhibition at 10 µM (OVCAR-4): 86.5%; inhibition at 10 µM (NCI-H522): 87.2%; inhibition at 10 µM (A549/ATCC): 98.7%; inhibition at 5 µM (PC-3 cells): 40.3 ± 3.44%; inhibition at 10 µM (CAKI-1): 84%; inhibition at 10 µM (HOP-62): 85.2%; inhibition at 10 µM (MDA-MB-435): 92.7%; inhibition at 10 µM (RPMI-8226): 104%
4 | O=C(c1nc2ccccc2[nH]1)[C@H]1[C@H](c2ccc(Br)cc2)C2CSCN2[C@]12C(=O)Nc1ccccc12 (stereo partly drawn) [Compound 6l, (3S,6′R)-6'-(1H-Benzo [d]imidazole-2-carbonyl)-7'-(4-bromophenyl)-3′,6′,7′,7a′-tetrahydro-1′H-spiro [indoline-3.5′-pyrrolo [1,2-c]thiazol]-2-one] | 62.1 | 54.1 | 77.9 | 59.8 | 56.3 | 48.6 | 60.6 | 79.4 | 84.8 | 82.8 | 37.4 ± 2.02 | 73.2 | 89.9 | 74.5 | 66.2 | 80.7 | 88.2 | 172 to 174 | 68 | 68.8 | inhibition at 10 µM (HCT-15): 67%; inhibition at 10 µM (MALME-3M): 78.5%; inhibition at 10 µM (OVCAR-3): 79.8%; inhibition at 10 µM (SF-539): 82.4%; inhibition at 10 µM (MDA-MB-468): 87.2%; inhibition at 10 µM (M14): 68.6%; inhibition at 10 µM (OVCAR-4): 70.8%; inhibition at 10 µM (NCI-H522): 91.2%; inhibition at 10 µM (A549/ATCC): 73%; inhibition at 5 µM (PC-3 cells): 55.1 ± 1.98%; inhibition at 10 µM (CAKI-1): 60.3%; inhibition at 10 µM (HOP-62): 88.7%; inhibition at 10 µM (MDA-MB-435): 67.9%; inhibition at 10 µM (RPMI-8226): 61.3%
